Legend:
HBV [1] = assay: Anti-HBV activity, HepG2.117 inducibly HBV producing cell line (Tet-off), intracellular HBV DNA by realtime PCR; type: cell-based; conditions: Hepatitis B virus, HepG2.117, 72 h, HepG2.117 cells, 3 days of treatment, intracellular HBV DNA; read-out: HepG2 117 EC50
[2] = Cytotoxicity in HepG2 cells, Resazurin viability assay; conditions: human, HepG2 cells, HepG2 4 days CC50 (μM), incubated for 4 days, Resazurin assay
HBV [3] = assay: Anti-HBV activity, HepG2.2.15 stable transfected cell line, HBV DNA from secreted virions by realtime PCR; type: cell-based; conditions: HepG2.2.15 cells, 6 days of treatment, HBV DNA from secreted virions, read-out: HepG2 2.15 EC50
[4] = Hepatitis B virus, HepG2.2.15, 144 h

| SMILES | EC50 (HBV [1]) | CC50 at 4 days [2] | EC50 (HBV [3]; [4]) | EC50 (HBV [3]) |
| --- | --- | --- | --- | --- |
| Cc1cc(NC(=O)c2cc(S(=O)(=O)NC(C)C)cn2C)ccc1F [Compound 2, N-(4-fluoro-3-methyl-phenyl)-4-(isopropylsulfamoyl)-1-methyl-pyrrole-2-carboxamide] | 0.06 µM | > 25 µM | 0.03 µM |  |
| CC[C@@H](C)NS(=O)(=O)c1cc(C(=O)Nc2cc(C)c(F)c(F)c2)n(C)c1 [Compound 34, N-(3,4-difluoro-5-methyl-phenyl)-1-methyl-4-[[(1R)-1-methylpropyl]-sulfamoyl]pyrrole-2-carboxamide] | < 0.02 µM | > 25 µM | 0.03 µM |  |
| Cn1cc(S(=O)(=O)NCC(F)F)cc1C(=O)Nc1ccc(F)c(Br)c1 [Compound 127, N-(3-Bromo-4-fluorophenyl)-4-[(2,2-difluoroethyl)sulfamoyl]-1-methyl-1H-pyrrole-2-carboxamide] | 0.19 µM | > 25 µM | 0.05 µM |  |
| Cc1c(S(=O)(=O)N[C@H](C)C(F)(F)F)cc(C(=O)Nc2cc(F)c(F)c(Cl)c2)n1C [Compound 137, N-(3-Chloro-4,5-difluorophenyl)-1,5-dimethyl-4-{[(1R)-2,2,2-trifluoro-1-methylethyl]sulfamoyl}-1H-pyrrole-2-carboxamide] | 0.04 µM | 16.5 µM | 0.03 µM |  |
| C[C@@H](NS(=O)(=O)c1cn(C)c(C(=O)Nc2ccc(F)c(Cl)c2F)c1F)C(F)(F)F [Compound 185, N-(3-Chloro-2,4-difluorophenyl)-3-fluoro-1-methyl-4-{[(1R)-2,2,2-trifluoro-1-methylethyl]sulfamoyl}-1H-pyrrole-2-carboxamide] | 0.005 µM | > 25 µM | 0.006 µM |  |
| Cc1cc(NC(=O)c2cc(S(=O)(=O)NC3(CCO)COC3)cn2C)ccc1F [Compound 14, N-(4-fluoro-3-methyl-phenyl)-4-[[3-(2-hydroxyethyl)oxetan-3-yl]sulfamoyl]-1-methyl-pyrrole-2-carboxamide] | 0.02 µM | > 25 µM | 0.04 µM |  |
| Cn1cc(S(=O)(=O)NC(C)(C)C(F)(F)F)cc1C(=O)Nc1ccc(F)c(F)c1 [Compound 95, N-(3,4-Difluorophenyl)-1-methyl-4-[(2,2,2-trifluoro-1,1-dimethylethyl)-sulfamoyl]-1H-pyrrole-2-carboxamide] | 0.06 µM | > 25 µM | 0.13 µM |  |
| CC(C)NS(=O)(=O)c1cn(C)c(C(=O)Nc2ccc(F)c(F)c2)c1F [Compound 232, N-(3,4-Difluorophenyl)-3-fluoro-1-methyl-4-[(1-methylethyl)sulfamoyl]-1H-pyrrole-2-carboxamide] | 0.02 µM | > 25 µM | 0.02 µM |  |
| CC(C)NS(=O)(=O)c1cc(C(=O)Nc2ccc(F)c(F)c2)n(C)c1 [Compound 22, N-(3,4-difluorophenyl)-4-(isopropylsulfamoyl)-1-methyl-pyrrole-2-carboxamide] | 0.07 µM | > 25 µM | 0.08 µM |  |
| Cn1cc(S(=O)(=O)NC(C)(C)CF)cc1C(=O)Nc1ccc(F)c(Cl)c1F [Compound 261] | 0.13 µM | > 25 µM | 0.04 µM |  |
| Cn1cc(S(=O)(=O)N[C@H]2CCOC2)cc1C(=O)Nc1ccc(F)c(F)c1 [Compound 21, N-(3,4-difluorophenyl)-1-methyl-4-[[(3S)-tetrahydrofuran-3-yl]-sulfamoyl]pyrrole-2-carboxamide] | 0.84 µM | > 25 µM | 0.22 µM |  |
| Cn1cc(S(=O)(=O)NC2CCCC2(F)F)cc1C(=O)Nc1ccc(F)c(Cl)c1F (single isomer, unassigned) [Compound 236a, N-(3-Chloro-2,4-difluorophenyl)-4-{[2,2-difluorocyclopentyl]sulfamoyl}-1-methyl-1H-pyrrole-2-carboxamide] | 0.05 µM | > 25 µM |  | 0.02 µM |
| Cn1cc(S(=O)(=O)NC2(C)COC2)cc1C(=O)Nc1ccc(F)c(C#N)c1 [Compound 50, N-(3-cyano-4-fluorophenyl)-1-methyl-4-[(3-methyloxetan-3-yl)sulfamoyl]-1H-pyrrole-2-carboxamide] | 0.05 µM | > 25 µM | 0.07 µM |  |
| Cc1cc(NC(=O)c2cc(S(=O)(=O)NC3(CC#N)CC3)cn2C)ccc1F [Compound 18, 4-[[1-(cyanomethyl)cyclopropyl]sulfamoyl]-N-(4-fluoro-3-methyl-phenyl)-1-methyl-pyrrole-2-carboxamide] | 0.03 µM | > 25 µM | < 0.02 µM |  |
| C[C@@H](NS(=O)(=O)c1cn(C)c(C(=O)Nc2ccc(F)c(C(F)F)c2)c1Cl)C(F)(F)F [Compound 279, 3-chloro-N-[3-(difluoromethyl)-4-fluoro-phenyl]-1-methyl-4-[[(1R)-2,2,2-trifluoro-1-methyl-ethyl]sulfamoyl]pyrrole-2-carboxamide] | 0.005 µM | > 25 µM | < 0.004 µM |  |
| Cn1cc(S(=O)(=O)NC2(C)COC2)cc1C(=O)Nc1cccc(C(F)(F)F)c1 [Compound 28, 1-methyl-4-[(3-methyloxetan-3-yl)sulfamoyl]-N-[3-(trifluoromethyl)-phenyl]pyrrole-2-carboxamide] | 0.14 µM | > 25 µM | 0.1 µM |  |
| Cc1cc(NC(=O)c2cc(S(=O)(=O)NC3(C)COC3)cn2C)cc(F)c1F [Compound 35, N-(3,4-difluoro-5-methyl-phenyl)-1-methyl-4-[(3-methyloxetan-3-yl)-sulfamoyl]pyrrole-2-carboxamide] | 0.02 µM | > 25 µM | 0.03 µM |  |
| CC(C)NS(=O)(=O)c1cn(C)c(C(=O)Nc2ccc(F)c(Cl)c2F)c1F [Compound 234, N-(3-Chloro-2,4-difluorophenyl)-3-fluoro-1-methyl-4-[(1-methyl-ethyl)sulfamoyl]-1H-pyrrole-2-carboxamide] | 0.03 µM | > 25 µM | 0.02 µM |  |
| Cc1c(S(=O)(=O)N[C@H](C)C(F)(F)F)cc(C(=O)Nc2ccc(F)c(Cl)c2)n1C [Compound 138, N-(3-Chloro-4-fluorophenyl)-1,5-dimethyl-4-{[(1R)-2,2,2-trifluoro-1-methylethyl]sulfamoyl}-1H-pyrrole-2-carboxamide] | 0.03 µM | > 25 µM | 0.1 µM |  |
| Cn1cc(S(=O)(=O)NC(C)(C)C)c(Cl)c1C(=O)Nc1ccc(F)c(C#N)c1 [Compound 226, 4-(tert-Butylsulfamoyl)-3-chloro-N-(3-cyano-4-fluorophenyl)-1-methyl-1H-pyrrole-2-carboxamide] | 0.21 µM | > 25 µM | 0.19 µM |  |
| CC(C)NS(=O)(=O)c1cc(C(=O)Nc2ccc(F)c(C#N)c2F)n(C)c1 [Compound 178, N-(3-Cyano-2,4-difluorophenyl)-1-methyl-4-[(1-methylethyl)sulfamoyl]-1H-pyrrole-2-carboxamide] | 0.09 µM | > 25 µM | 0.04 µM |  |
| Cn1cc(S(=O)(=O)NCC(F)(F)F)cc1C(=O)Nc1cc(F)c(F)c(Cl)c1 [Compound 133, N-(3-Chloro-4,5-difluorophenyl)-1-methyl-4-[(2,2,2-trifluoroethyl)sulfamoyl]-1H-pyrrole-2-carboxamide] | 0.08 µM | > 25 µM | 0.04 µM |  |

Reference: patent US9884818B2, “Sulphamoylpyrrolamide derivatives and the use thereof as medicaments for the treatment of hepatitis B” (Janssen Sciences Ireland UC, priority 2013, dated 2018)
